The results in this text go back to ChEMBL document CHEMBL1697723, “A predictive ligand-based Bayesian model for human drug-induced liver injury” (Drug Metab Dispos, 2010).

Each structure is given as a SMILES string.

The test system of the first series is Hepatotoxicity. Kind of series: Human drug-induced liver injury (DILI) modelling dataset from Ekins et al.
Conditions: not given
For the molecule `NN` [HYDRAZINE], the Hepatotoxicity result is “DILI positive (test set)”.

Regarding `NS(=O)(=O)c1cc2c(cc1Cl)NCNS2(=O)=O` [HYDROCHLOROTHIAZIDE], the Hepatotoxicity entry is “DILI positive (training set)”.

For the molecule `C[C@]12CCC(=O)C=C1CC[C@@H]1[C@@H]2[C@@H](O)C[C@@]2(C)[C@H]1CC[C@]2(O)C(=O)CO` [HYDROCORTISONE], the Hepatotoxicity entry is “DILI negative (training set)”.

In the case of `NC(=O)NO` [HYDROXYUREA], the Hepatotoxicity entry was “DILI positive (training set)”.

`CC(C)Cc1ccc(CC(=O)O)cc1` [IBUFENAC]: the Hepatotoxicity result is “DILI positive (test set)”.

Consider `CC(C)Cc1ccc(C(C)C(=O)O)cc1` (configuration not stated) [IBUPROFEN], for which the Hepatotoxicity entry is given as “DILI negative (test set)”.

For the molecule `CC(=O)[C@]1(O)Cc2c(O)c3c(c(O)c2[C@@H](O[C@H]2C[C@H](N)[C@H](O)[C@H](C)O2)C1)C(=O)c1ccccc1C3=O.Cl` [IDARUBICIN HYDROCHLORIDE], the Hepatotoxicity entry is given as “DILI negative (training set)”.

Consider `O=c1[nH]c(=O)n([C@H]2C[C@H](O)[C@@H](CO)O2)cc1I` [IDOXURIDINE], for which the Hepatotoxicity entry is recorded as “DILI positive (training set)”.

Consider `O=P1(NCCCl)OCCCN1CCCl` (configuration not stated) [IFOSFAMIDE], for which the Hepatotoxicity result is given as “DILI positive (test set)”.

For `CN(C)CCCN1c2ccccc2CCc2ccccc21.Cl` [IMIPRAMINE HYDROCHLORIDE], the Hepatotoxicity result was “DILI positive (training set)”.

For `Nc1cc(-c2ccncc2)c[nH]c1=O` [INAMRINONE], the Hepatotoxicity entry is on record as “DILI positive (training set)”.

In the case of `CC1(c2ccccc2)Cc2cc(OCC(=O)O)c(Cl)c(Cl)c2C1=O` (configuration not stated) [INDACRINONE], the Hepatotoxicity result was “DILI positive (test set)”.

On to `CC(C)(C)NC(=O)[C@@H]1CN(Cc2cccnc2)CCN1C[C@@H](O)C[C@@H](Cc1ccccc1)C(=O)N[C@H]1c2ccccc2C[C@H]1O.O=S(=O)(O)O` [INDINAVIR SULFATE], for which the Hepatotoxicity result is given as “DILI negative (test set)”.

Consider `COc1ccc2c(c1)c(CC(=O)O)c(C)n2C(=O)c1ccc(Cl)cc1` [INDOMETHACIN], for which the Hepatotoxicity entry is on record as “DILI positive (training set)”.

Consider `O[C@H]1[C@H](O)[C@@H](O)[C@H](O)[C@@H](O)[C@H]1O` [INOSITOL], for which the Hepatotoxicity entry was “DILI negative (test set)”.

With `C[C@H](O)C(=O)Nc1c(I)c(C(=O)NC(CO)CO)c(I)c(C(=O)NC(CO)CO)c1I` [IOPAMIDOL], the Hepatotoxicity entry is “DILI positive (test set)”.

`CC(C)NNC(=O)c1ccncc1` [IPRONIAZID]: the Hepatotoxicity entry is listed as “DILI positive (test set)”.

Regarding `CCCCC1=NC2(CCCC2)C(=O)N1Cc1ccc(-c2ccccc2-c2nnn[nH]2)cc1` [IRBESARTAN], the Hepatotoxicity result is “DILI negative (test set)”.

Turning to `Cc1cc(C(=O)NNCc2ccccc2)no1` [ISOCARBOXAZID], the Hepatotoxicity entry was “DILI negative (test set)”.

On to `NNC(=O)c1ccncc1` [ISONIAZID], for which the Hepatotoxicity result is recorded as “DILI positive (training set)”.

`O=[N+]([O-])O[C@H]1CO[C@H]2[C@@H]1OC[C@H]2O[N+](=O)[O-]` [ISOSORBIDE DINITRATE]: the Hepatotoxicity result is on record as “DILI negative (test set)”.

Consider `CC1=C(/C=C/C(C)=C/C=C/C(C)=C\C(=O)O)C(C)(C)CCC1` [ISOTRETINOIN], for which the Hepatotoxicity result is “DILI positive (training set)”.

Turning to `Cc1cc(NC(=O)C2=C(O)c3ccccc3S(=O)(=O)N2C)no1` [ISOXICAM], the Hepatotoxicity result is “DILI negative (test set)”.

Take `CC(COc1ccccc1)NC(C)C(O)c1ccc(O)cc1.Cl` (configuration not stated) [ISOXSUPRINE HYDROCHLORIDE]: the Hepatotoxicity entry is “DILI negative (training set)”.

Consider `CC(=O)N1CCN(c2ccc(OCC3COC(Cn4ccnc4)(c4ccc(Cl)cc4Cl)O3)cc2)CC1` (configuration not stated) [KETOCONAZOLE], for which the Hepatotoxicity entry is “DILI positive (test set)”.

On to `CC(C(=O)O)c1cccc(C(=O)c2ccccc2)c1` (configuration not stated) [KETOPROFEN], for which the Hepatotoxicity result is reported as “DILI negative (test set)”.

For `NC(CO)(CO)CO.O=C(c1ccccc1)c1ccc2n1CCC2C(=O)O` (configuration not stated) [KETOROLAC TROMETHAMINE], the Hepatotoxicity result is “DILI positive (training set)”.

Consider `CN1CCC(=C2c3ccccc3CC(=O)c3sccc32)CC1` [KETOTIFEN], for which the Hepatotoxicity entry is “DILI negative (training set)”.

As to `CC(CCc1ccccc1)NCC(O)c1ccc(O)c(C(N)=O)c1` (configuration not stated) [LABETALOL], the Hepatotoxicity result is “DILI positive (training set)”.

For the molecule `Nc1ccn([C@@H]2CS[C@H](CO)O2)c(=O)n1` [LAMIVUDINE], the Hepatotoxicity entry was “DILI negative (training set)”.

Turning to `CS(=O)(=O)CCNCc1ccc(-c2ccc3ncnc(Nc4ccc(OCc5cccc(F)c5)c(Cl)c4)c3c2)o1` [LAPATINIB], the Hepatotoxicity entry is recorded as “DILI positive (test set)”.

Take `Cc1oncc1C(=O)Nc1ccc(C(F)(F)F)cc1` [LEFLUNOMIDE]: the Hepatotoxicity entry is given as “DILI positive (training set)”.

`Nc1nc(=O)c2c([nH]1)NCC(CNc1ccc(C(=O)N[C@@H](CCC(=O)[O-])C(=O)[O-])cc1)N2C=O.[Ca+2]` (some centres not stated) [LEUCOVORIN CALCIUM]: the Hepatotoxicity entry is “DILI negative (test set)”.

As for `N[C@@H](Cc1ccc(O)c(O)c1)C(=O)O` [LEVODOPA], the Hepatotoxicity entry was “DILI negative (training set)”.

Consider `C[C@H]1COc2c(N3CCN(C)CC3)c(F)cc3c(=O)c(C(=O)O)cn1c23.C[C@H]1COc2c(N3CCN(C)CC3)c(F)cc3c(=O)c(C(=O)O)cn1c23.O` [LEVOFLOXACIN], for which the Hepatotoxicity result is listed as “DILI negative (training set)”.

For the molecule `N[C@@H](Cc1cc(I)c(Oc2ccc(O)c(I)c2)c(I)c1)C(=O)O` [LIOTHYRONINE], the Hepatotoxicity result is “DILI negative (test set)”.

As for `NCCCC[C@H](N[C@@H](CCc1ccccc1)C(=O)O)C(=O)N1CCC[C@H]1C(=O)O` [LISINOPRIL ANHYDROUS], the Hepatotoxicity entry is recorded as “DILI positive (training set)”.

Turning to `C[C@H](CCC(=O)O)[C@H]1CC[C@H]2[C@@H]3CC[C@@H]4C[C@H](O)CC[C@]4(C)[C@H]3CC[C@]12C` [LITHOCHOLIC ACID], the Hepatotoxicity result was “DILI positive (training set)”.

Take `CN(C)C(=O)C(CCN1CCC(O)(c2ccc(Cl)cc2)CC1)(c1ccccc1)c1ccccc1.Cl` [LOPERAMIDE HYDROCHLORIDE]: the Hepatotoxicity result is given as “DILI negative (training set)”.

As to `N[C@@H](C(=O)N[C@@H]1C(=O)N2C(C(=O)O)=C(Cl)CC[C@H]12)c1ccccc1` [LORACARBEF ANHYDROUS], the Hepatotoxicity result is “DILI negative (test set)”.

For the molecule `CCCCc1nc(Cl)c(CO)n1Cc1ccc(-c2ccccc2-c2nn[nH]n2)cc1` [LOSARTAN], the Hepatotoxicity entry is recorded as “DILI positive (test set)”.

In the case of `Cc1ccc(Nc2c(F)cccc2Cl)c(CC(=O)O)c1` [LUMIRACOXIB], the Hepatotoxicity entry is “DILI positive (test set)”.

In the case of `O=C(O)/C=C\C(=O)O` [MALEIC ACID], the Hepatotoxicity entry is on record as “DILI positive (training set)”.

For the molecule `COC(=O)Nc1nc2ccc(C(=O)c3ccccc3)cc2[nH]1` [MEBENDAZOLE], the Hepatotoxicity entry is “DILI positive (training set)”.

Still in this series, the particulars now being: Liver.
As for `CC(C)NCC(O)c1ccc(O)c(O)c1.Cl` (configuration not stated) [ISOPROTERENOL HYDROCHLORIDE], the Hepatotoxicity result was “DILI negative (training set)”.

On to `CCN(CC)CC(=O)Nc1c(C)cccc1C` [LIDOCAINE], for which the Hepatotoxicity entry is recorded as “DILI negative (training set)”.

For the molecule `CNCCCC12CCC(c3ccccc31)c1ccccc12` [MAPROTILINE], the Hepatotoxicity result is recorded as “DILI negative (training set)”.
